In paper PMC11881561 (Antimicrobial Agents and Chemotherapy, 2025):
Values after ≈ are worked out from the molar mass of the structure shown.

What was measured:
[1] = system: CC(C)(O/N=C(\C(=O)N[C@@H]1C(=O)N2C(C(=O)[O-])=C(C[n+]3ccccc3)CS[C@H]12)c1csc(N)n1)C(=O)O; test: purified protein, by the assay type; conditions: pH 7.4
[2] = system: Nc1nc(/C(=C/CC(=O)O)C(=O)N[C@@H]2C(=O)N3C(C(=O)O)=CCS[C@H]23)cs1; test: purified protein, by the assay type; conditions: pH 7.4
[3] = system: CO/N=C(\C(=O)N[C@@H]1C(=O)N2C(C(=O)[O-])=C(C[N+]3(C)CCCC3)CS[C@H]12)c1csc(N)n1; test: purified protein, by the assay type; conditions: pH 7.4
[4] = system: E. coli control strain lacking a β-lactamase; test: microbe, parasite or virus in culture; format: cell-based; conditions: Escherichia coli, no KPC expressed, BLIs at fixed 4 μg/mL
[5] = system: engineered E. coli strain expressing KPC-3^V240G; test: microbe, parasite or virus in culture; format: cell-based; conditions: Escherichia coli, BLIs at fixed 4 μg/mL
[6] = system: engineered E. coli strain expressing KPC-3 wt; test: microbe, parasite or virus in culture; format: cell-based; conditions: Escherichia coli; KPC-3 wt strain; BLIs at fixed 4 μg/mL
KPC-3^V240G = KPC-3^V240G (Klebsiella pneumoniae, UniProt Q9F663, H272Y/V239G); format: biochemical
[7] = system: engineered E. coli strain expressing KPC-2^D179Y; test: microbe, parasite or virus in culture; format: cell-based; conditions: Escherichia coli, BLIs at fixed 4 μg/mL
KPC-3^D179Y/T243M [8] = target: T1, KPC-3^D179Y/T243M (Klebsiella pneumoniae, UniProt Q9F663, D178Y/H272Y/T242M); test: β-lactam hydrolysis kinetics, purified KPC-3 D179Y/T243M; format: biochemical; conditions: substrate hydrolysis by KPC-3 D179Y/T243M
Method: (§1) Measurements to determine kinetic parameters for hydrolysis, and kinetic parameters for inhibition were performed at ambient temperature in PBS (pH 7.4) containing 0.1 mg/mL bovine serum albumin, using a PowerWaveXS plate reader (BioTek).
(§2) Assays to determine Michaelis-Menten kinetic parameters were performed by mixing variable amounts of enzymes (depending on the enzyme-substrate pair), with serial dilutions of different BL substrates and continuously monitoring the reduction in absorbance associated with BL hydrolysis ([28], [36], [40], [41]). Kinetic parameters were determined by plotting initial rates of hydrolysis (v) as a function of substrate concentration [S] and fitting the data to equation 1 using GraphPad Prism,
(§3) (1) v=[Et]×kcat×[S]/KM+[S]
(§4) where [Et] is the enzyme concentration, kcat the turnover number and KM the Michaelis constant.

KPC-3^D179Y [9] = target: T2, KPC-3^D179Y (Klebsiella pneumoniae, UniProt Q9F663, D178Y/H272Y); test: biochemical; conditions: ND = no significant inhibition at the highest concentration tested, read-out: Apparent affinity Ki^app
KPC-2^D179Y [10] = target: T3, KPC-2^D179Y (Klebsiella pneumoniae, UniProt Q9F663, D178Y); test: biochemical; conditions: ND = no significant inhibition at the highest concentration tested, read-out: Apparent affinity Ki^app
KPC-2 WT = KPC-2 WT (Klebsiella pneumoniae, UniProt Q9F663); test: biochemical; conditions: inhibition of CENTA hydrolysis, read-out: Apparent affinity Ki^app
[11] = system: engineered E. coli strain expressing KPC-2^V240G; test: microbe, parasite or virus in culture; format: cell-based; conditions: Escherichia coli, BLIs at fixed 4 μg/mL
[12] = system: engineered E. coli strain expressing KPC-2^D179Y/T243M; test: microbe, parasite or virus in culture; format: cell-based; conditions: Escherichia coli, BLIs at fixed 4 μg/mL
KPC-2^D179Y/T243M [13] = target: T4, KPC-2^D179Y/T243M (Klebsiella pneumoniae, UniProt Q9F663, D178Y/T242M); test: β-lactam hydrolysis kinetics, purified KPC-2 D179Y/T243M; format: biochemical; conditions: substrate hydrolysis by KPC-2 D179Y/T243M
Method: as §1, §2, §3, §4

[14] = system: D179Y-containing KPC-2 variants; format: biochemical, Klebsiella pneumoniae
[15] = system: engineered E. coli strain expressing KPC-3^D179Y; test: microbe, parasite or virus in culture; format: cell-based; conditions: Escherichia coli, BLIs at fixed 4 μg/mL
KPC-3^D179Y/T243M [16] = target: T1, KPC-3^D179Y/T243M; test: biochemical; conditions: ND = no significant inhibition at the highest concentration tested, read-out: Apparent affinity Ki^app
KPC-3^D179Y [17] = target: T2, KPC-3^D179Y; test: β-lactam hydrolysis kinetics, purified KPC-3 D179Y; format: biochemical; conditions: substrate hydrolysis by KPC-3 D179Y
Method: as §1, §2, §3, §4

KPC-3 WT [18] = target: T5, KPC-3 WT (Klebsiella pneumoniae, UniProt Q9F663, H272Y); format: biochemical; conditions: substrate hydrolysis by KPC-3 WT
[19] = system: E. coli strains expressing KPC-2^D179Y or KPC-2^D179Y/T243M; test: microbe, parasite or virus in culture; format: cell-based; conditions: Escherichia coli
KPC-3 WT [20] = target: T5, KPC-3 WT; test: biochemical; conditions: inhibition of CENTA hydrolysis, read-out: Apparent affinity Ki^app
KPC-2^D179Y [21] = target: T3, KPC-2^D179Y; test: β-lactam hydrolysis kinetics, purified KPC-2 D179Y; format: biochemical; conditions: substrate hydrolysis by KPC-2 D179Y
Method: as §1, §2, §3, §4

[22] = system: engineered E. coli strain expressing KPC-3^D179Y/T243M; test: microbe, parasite or virus in culture; format: cell-based; conditions: Escherichia coli, BLIs at fixed 4 μg/mL
[23] = system: engineered E. coli strain expressing KPC-2 wt; test: microbe, parasite or virus in culture; format: cell-based; conditions: Escherichia coli; KPC-2 wt strain; BLIs at fixed 4 μg/mL
KPC-2^V240G = KPC-2^V240G (Klebsiella pneumoniae, UniProt Q9F663, V239G); format: biochemical
KPC-2^D179Y/T243M [24] = target: T4, KPC-2^D179Y/T243M; test: biochemical; conditions: ND = no significant inhibition at the highest concentration tested, read-out: Apparent affinity Ki^app

Q: With KPC-2 WT (Klebsiella pneumoniae) as the molecule, how does the kcat/Km [1] read?
A: Its kcat/Km is 730 ± 130 M⁻¹ s⁻¹.

Q: What about the kcat/Km [2] of the same molecule?
A: Its kcat/Km is 2200 ± 240 M⁻¹ s⁻¹.

Q: What about the kcat/Km [3] of the same molecule?
A: The kcat/Km was 130000 ± 4000 M⁻¹ s⁻¹.

Q: `CO/N=C(\C(=O)N[C@@H]1C(=O)N2C(C(=O)[O-])=C(C[N+]3(C)CCCC3)CS[C@H]12)c1csc(N)n1` [FEP, cefepime] was tested. Which MIC [4] did it give?
A: The MIC was 0.12 µg/mL (≈ 0.25 µM).

Q: What about the MIC [5] of the same molecule?
A: The MIC was 256 µg/mL (≈ 533 µM).

Q: And the MIC [6]?
A: The MIC was 128 µg/mL (≈ 266 µM).

Q: What about the Km (KPC-3^V240G) of the same molecule?
A: The Km was over 500 µM.

Q: What about the MIC [7] of the same molecule?
A: Its MIC is 16 µg/mL (≈ 33.3 µM).

Q: And the Km (KPC-3^D179Y/T243M [8])?
A: Its Km is 42.5 ± 12.5 µM.

Q: And the kcat (KPC-3^D179Y/T243M [8])?
A: Its kcat is 18.7 ± 2.3 s⁻¹.

Q: What about the Ki (KPC-3^D179Y [9]) of the same molecule?
A: The Ki was 1040 ± 72 µM.

Q: What about the Ki (KPC-2^D179Y [10]) of the same molecule?
A: The Ki was 4.6 ± 1.2 µM.

Q: And the Ki (KPC-2 WT)?
A: The Ki was 32.9 ± 5.6 µM.

Q: And the MIC [11]?
A: Its MIC is 128 µg/mL (≈ 266 µM).

Q: And the MIC [12]?
A: Its MIC is 16 µg/mL (≈ 33.3 µM).

Q: What about the Km (KPC-2^D179Y/T243M [13]) of the same molecule?
A: The Km was 3 ± 0.6 µM.

Q: What about the kcat (KPC-2^D179Y/T243M [13]) of the same molecule?
A: Its kcat is “(1.7 ± 0.06) × 10^−2 s^−1”.

Q: What about the “weaker affinity than CAZ” value [14] of the same molecule?
A: The value was ~ 10 fold.

Q: What about the MIC [15] of the same molecule?
A: The MIC was 32 µg/mL (≈ 66.6 µM).

Q: And the Ki (KPC-3^D179Y/T243M [16])?
A: The Ki was 728 ± 58 µM.

Q: And the Km (KPC-3^D179Y [17])?
A: The Km was 90 ± 31 µM.

Q: What about the kcat (KPC-3^D179Y [17]) of the same molecule?
A: Its kcat is 38 ± 7 s⁻¹.

Q: And the Km (KPC-3 WT [18])?
A: The Km was over 500 µM.

Q: What about the MIC [19] of the same molecule?
A: Its MIC is 16 µg/mL (≈ 33.3 µM).

Q: What about the Ki (KPC-3 WT [20]) of the same molecule?
A: The Ki was 276 ± 47 µM.

Q: And the Km (KPC-2^D179Y [21])?
A: Its Km is 3.7 ± 0.7 µM.

Q: What about the kcat (KPC-2^D179Y [21]) of the same molecule?
A: Its kcat is “(1.5 ± 0.07) × 10^−2 s^−1”.

Q: And the MIC [22]?
A: Its MIC is 16 µg/mL (≈ 33.3 µM).

Q: What about the MIC [23] of the same molecule?
A: Its MIC is 64 µg/mL (≈ 133 µM).

Q: And the Km (KPC-2^V240G)?
A: The Km was over 500 µM.

Q: What about the Ki (KPC-2^D179Y/T243M [24]) of the same molecule?
A: The Ki was 3.2 ± 0.6 µM.
